Assay results taken from patent US9833497B2, “Human originated EGF domain proteins and use of the same” (CHENGDU SOURCEBIO LIMITED-LIABILITY COMPANY, priority 2013, dated 2017).

Columns and labels:
Type in all cases: cell-based
Citrobacter diversus = assay: MIC against Gram-negative bacteria: Citrobacter diversus
In short: (§1)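 MIC = lowest concentration of recombinant protein showing no growth. Test proteins: purified human-derived EGF domain proteins, two-fold dilution series, three wells per concentration; inoculum 5×10^5 CFU/mL in LB; incubation 37° C with shaking at 175 rpm.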

Serratia marcescens = assay: MIC against Gram-negative bacteria: Serratia marcescens
In short: as §1

Aeromonas hydrophila = assay: MIC against Gram-negative bacteria: Aeromonas hydrophila
In short: as §1

Proteus vulgaris = assay: MIC against Gram-negative bacteria: Proteus vulgaris
In short: as §1

Moraxella catarrhalis = assay: MIC against Gram-negative bacteria: Moraxella catarrhalis
In short: as §1

Pseudomonas aeruginosa = assay: MIC against Gram-negative bacteria: Pseudomonas aeruginosa
In short: as §1

E. coli BL21 = assay: MIC against Gram-negative bacteria: E. coli BL21
In short: as §1

Enterobacter cloacae = assay: MIC against Gram-negative bacteria: Enterobacter cloacae
In short: as §1

Proteus mirabilis = assay: MIC against Gram-negative bacteria: Proteus mirabilis
In short: as §1

E. coli DH5α = assay: Antibacterial activity: MIC and growth curve against E. coli DH5α in 96-well plate; conditions: minimal inhibitory concentration against E. coli DH5α; 96-well plate, 5×10^5 CFU/mL, 37° C., judged after 8 h
In short: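 MIC taken as lowest protein level with no bacterial growth, tracked by A600 every 30 min during 37 °C, 175 rpm culture. Two-fold protein series 50-12.5 μg/mL final, triplicate wells, against 5×10^5 CFU/mL of LB-washed mid-log cells.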

Klebsiella pneumonia = assay: MIC against Gram-negative bacteria: Klebsiella pneumonia
In short: as §1

[1] = 96-well plate, 5×10^5 CFU/mL, 37° C., 10 h
[2] = Citrobacter diversus, 5×10^5 CFU/mL, 10 h cultivation at 37° C.
[3] = Serratia marcescens, 5×10^5 CFU/mL, 10 h cultivation at 37° C.
[4] = Aeromonas hydrophila, 5×10^5 CFU/mL, 10 h cultivation at 37° C.
[5] = Proteus vulgaris, 5×10^5 CFU/mL, 10 h cultivation at 37° C.
[6] = Moraxella catarrhalis, 5×10^5 CFU/mL, 10 h cultivation at 37° C.
[7] = Pseudomonas aeruginosa, 5×10^5 CFU/mL, 10 h cultivation at 37° C.
[8] = E. coli BL21, 5×10^5 CFU/mL, 10 h cultivation at 37° C.
[9] = Enterobacter cloacae, 5×10^5 CFU/mL, 10 h cultivation at 37° C.
[10] = Proteus mirabilis, 5×10^5 CFU/mL, 10 h cultivation at 37° C.
[11] = Klebsiella pneumonia, 5×10^5 CFU/mL, 10 h cultivation at 37° C.
[12] = Citrobacter diversus, 96-well plate, 5×10^5 CFU/mL, 37° C., 10 h
[13] = Serratia marcescens, 96-well plate, 5×10^5 CFU/mL, 37° C., 10 h
[14] = Aeromonas hydrophila, 96-well plate, 5×10^5 CFU/mL, 37° C., 10 h
[15] = Proteus vulgaris, 96-well plate, 5×10^5 CFU/mL, 37° C., 10 h
[16] = Moraxella catarrhalis, 96-well plate, 5×10^5 CFU/mL, 37° C., 10 h
[17] = Pseudomonas aeruginosa, 96-well plate, 5×10^5 CFU/mL, 37° C., 10 h
[18] = E. coli BL21, 96-well plate, 5×10^5 CFU/mL, 37° C., 10 h
[19] = Enterobacter cloacae, 96-well plate, 5×10^5 CFU/mL, 37° C., 10 h
[20] = Proteus mirabilis, 96-well plate, 5×10^5 CFU/mL, 37° C., 10 h
[21] = Klebsiella pneumonia, 96-well plate, 5×10^5 CFU/mL, 37° C., 10 h
[22] = 10 h cultivation at 37° C., 5×10^5 CFU/mL, two-fold serial dilution

| Substance | MIC (E. coli DH5α) [µg/mL] | MIC against C. diversus (Citrobacter diversus; [2]) [µg/mL] | MIC against S. marcescens (Serratia marcescens; [3]) [µg/mL] | MIC against A. hydrophila (Aeromonas hydrophila; [4]) [µg/mL] | MIC against P. vulgaris (Proteus vulgaris; [5]) [µg/mL] | MIC against M. catarrhalis (Moraxella catarrhalis; [6]) [µg/mL] | MIC against P. aeruginosa (Pseudomonas aeruginosa; [7]) [µg/mL] | MIC against E. coli BL21 (E. coli BL21; [8]) [µg/mL] | MIC against E. cloacae (Enterobacter cloacae; [9]) [µg/mL] | MIC against P. mirabilis (Proteus mirabilis; [10]) [µg/mL] | MIC against K. pneumonia (Klebsiella pneumonia; [11]) [µg/mL] | MIC (μg/mL) C. diversus (Citrobacter diversus; [12]) [µg/mL] | MIC (μg/mL) S. marcescens (Serratia marcescens; [13]) [µg/mL] | MIC (μg/mL) A. hydrophila (Aeromonas hydrophila; [14]) [µg/mL] | MIC (μg/mL) P. vulgaris (Proteus vulgaris; [15]) [µg/mL] | MIC (μg/mL) M. catarrhalis (Moraxella catarrhalis; [16]) [µg/mL] | MIC (μg/mL) P. aeruginosa (Pseudomonas aeruginosa; [17]) [µg/mL] | MIC (μg/mL) E. coli BL21 (E. coli BL21; [18]) [µg/mL] | MIC (μg/mL) E. cloacae (Enterobacter cloacae; [19]) [µg/mL] | MIC (μg/mL) P. mirabilis (Proteus mirabilis; [20]) [µg/mL] | also measured |
| --- | --- | --- | --- | --- | --- | --- | --- | --- | --- | --- | --- | --- | --- | --- | --- | --- | --- | --- | --- | --- | --- |
| PRT503 (CACPLTIASNNFSPTCHLNDGDEVVCDWCAPGYSGAWCERCADGYYGNPTVPGESCVP; listed as Homo sapiens) | 12.5 |  |  |  |  |  |  |  |  |  |  |  |  |  |  |  |  |  |  |  | MIC against C. diversus (Citrobacter diversus; [1]): 50 µg/mL; MIC against S. marcescens (Serratia marcescens; [1]): 50 µg/mL; MIC against A. hydrophila (Aeromonas hydrophila; [1]): 25 µg/mL; MIC against P. vulgaris (Proteus vulgaris; [1]): 12.5 µg/mL; MIC against M. catarrhalis (Moraxella catarrhalis; [1]): 12.5 µg/mL; MIC against P. aeruginosa (Pseudomonas aeruginosa; [1]): 50 µg/mL; MIC against E. coli BL21 (E. coli BL21; [1]): 25 µg/mL; MIC against E. cloacae (Enterobacter cloacae; [1]): 12.5 µg/mL; MIC against P. mirabilis (Proteus mirabilis; [1]): 50 µg/mL; MIC against K. pneumonia (Klebsiella pneumonia; [1]): 25 µg/mL |
| PRT227 (KGNNCRDSTLCPAYATCTNTVDSYYCACKQGFLSSNGQNHFKDPGVRCK; listed as Homo sapiens) | 12.5 |  |  |  |  |  |  |  |  |  |  |  |  |  |  |  |  |  |  |  | MIC (μg/mL) C. diversus (Citrobacter diversus; C. diversus, 10 h cultivation at 37° C., 5×10^5 CFU/mL): 50 µg/mL; MIC (μg/mL) S. marcescens (Serratia marcescens; S. marcescens, 10 h cultivation at 37° C., 5×10^5 CFU/mL): 50 µg/mL; MIC (μg/mL) A. hydrophila (Aeromonas hydrophila; A. hydrophila, 10 h cultivation at 37° C., 5×10^5 CFU/mL): 12.5 µg/mL; MIC (μg/mL) P. vulgaris (Proteus vulgaris; P. vulgaris, 10 h cultivation at 37° C., 5×10^5 CFU/mL): 25 µg/mL; MIC (μg/mL) M. catarrhalis (Moraxella catarrhalis; M. catarrhalis, 10 h cultivation at 37° C., 5×10^5 CFU/mL): 25 µg/mL; MIC (μg/mL) P. aeruginosa (Pseudomonas aeruginosa; P. aeruginosa, 10 h cultivation at 37° C., 5×10^5 CFU/mL): 12.5 µg/mL; MIC (μg/mL) E. coli BL21 (E. coli BL21; E. coli BL21, 10 h cultivation at 37° C., 5×10^5 CFU/mL): 12.5 µg/mL; MIC (μg/mL) E. cloacae (Enterobacter cloacae; E. cloacae, 10 h cultivation at 37° C., 5×10^5 CFU/mL): 12.5 µg/mL; MIC (μg/mL) P. mirabilis (Proteus mirabilis; P. mirabilis, 10 h cultivation at 37° C., 5×10^5 CFU/mL): 12.5 µg/mL; MIC (μg/mL) K. pneumonia (Klebsiella pneumonia; K. pneumonia, 10 h cultivation at 37° C., 5×10^5 CFU/mL): 12.5 µg/mL |
| PRT1463 (CDCDTAGSLPGTVCNAKTGQCICKPNVEGRQCNKCLEGNFYLRQNNSFLCLP; listed as Homo sapiens) | 50 | 50 | 12.5 | 12.5 | 25 | 25 | 12.5 | 25 | 50 | 12.5 | 25 |  |  |  |  |  |  |  |  |  |  |
| PRT1408 (NEICSVDCGSHGVCMGGTCRCEEGWTGPACNQ; listed as Homo sapiens) | 25 | 12.5 | 25 | 12.5 | 12.5 | 12.5 | 25 | 12.5 | 25 | 12.5 | 12.5 |  |  |  |  |  |  |  |  |  |  |
| PRT1355 (AELSCPNDCHGQGRCVNGQCVCHEGFMGKDCK; listed as Homo sapiens) | 50 | 50 | 25 | 12.5 | 50 | 12.5 | 12.5 | 25 | 50 | 25 | 25 |  |  |  |  |  |  |  |  |  |  |
| PRT90 (CDCYPVGSTSRSCAPHSGQCPCRPGALGRQCNSCDSPFAEVTASGCRV; listed as Homo sapiens) | 50 |  |  |  |  |  |  |  |  |  |  | 25 | 12.5 | 12.5 | 12.5 | 12.5 | 12.5 | 12.5 | 12.5 | 25 | MIC (μg/mL) K. pneumonia (Klebsiella pneumonia; [21]): 12.5 µg/mL |
| PRT957 (APPCLDGSPCANGGRCTQLPSREAACLCPPGWVGERCQ; listed as Homo sapiens) | 12.5 |  |  |  |  |  |  |  |  |  |  |  |  |  |  |  |  |  |  |  | MIC (Citrobacter diversus; C. diversus, 10 h cultivation at 37° C.): 50 µg/mL; MIC (Serratia marcescens; S. marcescens, 10 h cultivation at 37° C.): 12.5 µg/mL; MIC (Aeromonas hydrophila; A. hydrophila, 10 h cultivation at 37° C.): 25 µg/mL; MIC (Proteus vulgaris; P. vulgaris, 10 h cultivation at 37° C.): 50 µg/mL; MIC (Moraxella catarrhalis; M. catarrhalis, 10 h cultivation at 37° C.): 12.5 µg/mL; MIC (Pseudomonas aeruginosa; P. aeruginosa, 10 h cultivation at 37° C.): 50 µg/mL; MIC (E. coli BL21; E. coli BL21, 10 h cultivation at 37° C.): 25 µg/mL; MIC (Enterobacter cloacae; E. cloacae, 10 h cultivation at 37° C.): 12.5 µg/mL; MIC (Proteus mirabilis; P. mirabilis, 10 h cultivation at 37° C.): 25 µg/mL; MIC (Klebsiella pneumonia; K. pneumonia, 10 h cultivation at 37° C.): 25 µg/mL |
| PRT1075 (EVNKCSRCLEGACVVNKQSGDVTCNCTDGRVAPSCL; listed as Homo sapiens) | 25 |  |  |  |  |  |  |  |  |  |  |  |  |  |  |  |  |  |  |  | MIC C. diversus (Citrobacter diversus; [22]): 50 µg/mL; MIC S. marcescens (Serratia marcescens; [22]): 50 µg/mL; MIC A. hydrophila (Aeromonas hydrophila; [22]): 25 µg/mL; MIC P. vulgaris (Proteus vulgaris; [22]): 12.5 µg/mL; MIC M. catarrhalis (Moraxella catarrhalis; [22]): 25 µg/mL; MIC P. aeruginosa (Pseudomonas aeruginosa; [22]): 25 µg/mL; MIC E. coli BL21 (E. coli BL21; [22]): 12.5 µg/mL; MIC E. cloacae (Enterobacter cloacae; [22]): 25 µg/mL; MIC P. mirabilis (Proteus mirabilis; [22]): 50 µg/mL; MIC K. pneumonia (Klebsiella pneumonia; [22]): 50 µg/mL |
| PRT1494 (KALCTPRCMNGGLCVTPGFCICPPGFYGVNCD; listed as Homo sapiens) | 25 |  |  |  |  |  |  |  |  |  |  | 25 | 12.5 | 12.5 | 12.5 | 25 | 25 | 12.5 | 25 | 12.5 | MIC (μg/mL) K. pneumonia (Klebsiella pneumonia; [21]): 12.5 µg/mL |
| PRT82 (CDCYPTGSLSRVCDPEDGQCPCKPGVIGRQCDRCDNPFAEVTTNGCEV; listed as Homo sapiens) | 25 |  |  |  |  |  |  |  |  |  |  | 50 | 12.5 | 12.5 | 12.5 | 100 | 25 | 12.5 | 25 | 12.5 | MIC (μg/mL) K. pneumonia (Klebsiella pneumonia; [21]): 50 µg/mL |
